In US20220125771A1, “S[…], ANALOGUES THEREOF, AND METHODS USING SAME” (priority 2019, published 2022):
Read-outs that look alike come from different tables or passages of the source.

Tested on: HBsAg in HepG2.2.15 cells
Test: HBsAg Assay: inhibition of HBsAg in HepG2.2.15 cells (CLIA immunoassay of supernatant)
Assay type: cell-based, hepatitis B virus
Conditions: supernatant collected at day 6 after exposure of compounds, final DMSO 0.5%
Experimental: Inhibition of HBsAg was determined in HepG2.2.15 cells. Cells were maintained in culture medium containing 10% fetal calf serum, […], Glutamine, penicillin/streptomycin. Cells were seeded in 96-well collagen-coated plate at a density of 30,000 cells/well. Serially diluted compounds were added to cells next day at the final DMSO concentration of 0.5%. Cells were incubated with compounds for 2-3 days, after which medium was removed. Fresh medium containing compounds was added to cells for additional 3-4 days. At day 6 after exposure of compounds, supernatant was collected, the HBsAg immunoassay (microplate-based chemiluminescence immunoassay kits, CLIA, Autobio Diagnosics Co., Zhengzhou, China, Catalog #CL0310-2) was used to determine the level of HBsAg according to manufactory instruction. Dose-response curves were generated and the EC50 value (effective concentrations that achieved 50% inhibitory effect) were determined using XLfit software. In addition, cells were seeded at a density of 5,000 cells/well for determination of cell viability in the presence and absence of compounds by using CellTiter-Glo reagent (Promega). Tables 1-3 show EC50 values obtained by the HBsAg assay for selected compounds.

[1] = read-out: sAg EC50, HepG2.2.15 cells
[2] = Hepatitis B virus, HepG2.2.15, 144 h, read-out: sAg EC50, μM, HepG2.2.15 cells

Row | Structure (SMILES) | EC50 [1] | EC50 [2]
1 | COc1cccn2c3c(nc12)-c1[nH]c(=O)c(C(=O)O)cc1C(C(C)C)C3 (single isomer, unassigned) [Example 16, 5-Isopropyl-11-methoxy-2-oxo-1,2,5,6-tetrahydropyrido[2′,1′:2,3]imidazo[4,5-h]quinoline-3-carboxylic Acid] | 0.048 µM | –
2 | CN1CCCc2c3c(cc(OC(F)F)c21)-c1[nH]c(=O)c(C(=O)O)cc1C(C(C)(C)C)C3 (single isomer, unassigned) [Example 32, 6-(tert-Butyl)-12-(difluoromethoxy)-1-methyl-9-oxo-1,2,3,4,5,6,9,10-octahydroquinolino[7,8-f]quinoline-8-carboxylic Acid] | 0.002 µM | –
3 | COc1cccc2c1nc1n2CC(C(C)(C)C)c2cc(C(=O)O)c(=O)[nH]c2-1 (single isomer, unassigned) [Example 27, 5-(tert-Butyl)-11-methoxy-2-oxo-1,2,5,6-tetrahydrobenzo[4,5]imidazo[1,2-h][1,7]naphthyridine-3-carboxylic Acid] | 10 µM | –
4 | CC(C)C1Cc2c(nc3c(OC(F)F)cccn23)-c2[nH]c(=O)c(C(=O)O)cc21 (single isomer, unassigned) [Example 13, 11-(Difluoromethoxy)-5-isopropyl-2-oxo-1,2,5,6-tetrahydropyrido[2′,1′:2,3]imidazo[4,5-h]quinoline-3-carboxylic Acid] | 1.1 µM | –
5 | CC(C)(C)C1Cc2c(nc3c(OC(F)F)cccn23)-c2[nH]c(=O)c(C(=O)O)cc21 (single isomer, unassigned) [Example 10, 5-(tert-Butyl)-11-(difluoromethoxy)-2-oxo-1,2,5,6-tetrahydropyrido[2′,1′:2,3]imidazo[4,5-h]quinoline-3-carboxylic Acid] | 0.003 µM | –
6 | CC(C)(C)C1Cc2c(cc(OC(F)F)c3ncccc23)-c2[nH]c(=O)c(C(=O)O)c(O)c21 (stereo not shown) [Example 29, 6-(tert-Butyl)-12-(difluoromethoxy)-7-hydroxy-9-oxo-5,6,9,10-tetrahydroquinolino[7,8-f]quinoline-8-carboxylic Acid] | – | 0.001 µM
7 | COc1cccc2c1cc1n2CC(C(C)(C)C)c2c-1[nH]c(=O)c(C(=O)O)c2O (stereo not shown) [Example 4, 5-(tert-Butyl)-4-hydroxy-11-methoxy-2-oxo-1,2,5,6-tetrahydroindolo[1,2-h][1,7]naphthyridine-3-carboxylic Acid] | – | 0.13 µM
8 | CC(C)(C)C1Cc2c(nc3c(OC(F)F)cccn23)-c2[nH]c(=O)c(C(=O)O)c(O)c21 (single isomer, unassigned) [Example 8, 5-(tert-Butyl)-11-(difluoromethoxy)-4-hydroxy-2-oxo-1,2,5,6-tetrahydropyrido[2′,1′:2,3]imidazo[4,5-h]quinoline-3-carboxylic Acid] | 0.22 µM | –
9 | COc1cccn2c3c(nc12)-c1[nH]c(=O)c(C(=O)O)cc1C(C(C)C)C3 (single isomer, unassigned) [Example 17, 5-Isopropyl-11-methoxy-2-oxo-1,2,5,6-tetrahydropyrido[2′,1′:2,3]imidazo[4,5-h]quinoline-3-carboxylic Acid] | 10 µM | –
10 | CC(C)(C)C1Cc2c(nc3c(OC(F)F)cccn23)-c2[nH]c(=O)c(C(=O)O)cc21 (single isomer, unassigned) [Example 11, 5-(tert-Butyl)-11-(difluoromethoxy)-2-oxo-1,2,5,6-tetrahydropyrido[2′,1′:2,3]imidazo[4,5-h]quinoline-3-carboxylic Acid] | 27 µM | –
11 | CC(C)(C)C1Cn2c(nc3c(OC(F)F)cccc32)-c2[nH]c(=O)c(C(=O)O)cc21 (stereo not shown) [Example 26, 5-(tert-Butyl)-11-(difluoromethoxy)-2-oxo-1,2,5,6-tetrahydrobenzo[4,5]imidazo[1,2-h][1,7]naphthyridine-3-carboxylic Acid] | – | 0.057 µM
12 | Cn1c2c(cc(C(=O)O)c1=O)C(C(C)(C)C)Cc1c-2cc(OC(F)F)c2ncccc12 (single isomer, unassigned) [Example 40, 6-(tert-Butyl)-12-(difluoromethoxy)-10-methyl-9-oxo-5,6,9,10-tetrahydroquinolino[7,8-f]quinoline-8-carboxylic Acid] | 0.2 µM | –
13 | CC(C)(C)C1Cn2c(cc3c(OC(F)F)cccc32)-c2[nH]c(=O)c(C(=O)O)c(O)c21 (single isomer, unassigned) [Example 3, 5-(tert-Butyl)-11-(difluoromethoxy)-4-hydroxy-2-oxo-1,2,5,6-tetrahydroindolo[1,2-h][1,7]naphthyridine-3-carboxylic Acid] | 0.005 µM | –
14 | CC(C)C1Cc2c(nc3c(OC(F)F)cccn23)-c2[nH]c(=O)c(C(=O)O)cc21 (single isomer, unassigned) [Example 12, 11-(Difluoromethoxy)-5-isopropyl-2-oxo-1,2,5,6-tetrahydropyrido[2′,1′:2,3]imidazo[4,5-h]quinoline-3-carboxylic Acid] | 0.018 µM | –
15 | COc1ccn2c3c(nc2c1OC)-c1c(cc(C(=O)O)c(=O)n1C)C(C(C)(C)C)C3 (single isomer, unassigned) [Example 22, 5-(tert-Butyl)-10,11-dimethoxy-1-methyl-2-oxo-1,2,5,6-tetrahydropyrido[2′,1′:2,3]imidazo[4,5-h]quinoline-3-carboxylic Acid] | 0.11 µM | –
16 | COc1ccn2c3c(nc2c1OC)-c1c(cc(C(=O)O)c(=O)n1C)C(C(C)(C)C)C3 (single isomer, unassigned) [Example 23, 5-(tert-butyl)-10,11-dimethoxy-1-methyl-2-oxo-1,2,5,6-tetrahydropyrido[2′,1′:2,3]imidazo[4,5-h]quinoline-3-carboxylic Acid] | 0.011 µM | –
17 | COc1nc2c(c3ccccc13)CC(C(C)(C)C)c1cc(C(=O)O)c(=O)[nH]c1-2 (single isomer, unassigned) [Example 41, 12-(tert-Butyl)-6-methoxy-3-oxo-3,4,11,12-tetrahydrobenzo[c][1,10]phenanthroline-2-carboxylic Acid] | 0.001 µM | –
18 | CCOc1cccc2c1cc1n2CC(C(C)(C)C)c2c-1[nH]c(=O)c(C(=O)O)c2O (stereo not shown) [Example 5, 5-(tert-Butyl)-11-ethoxy-4-hydroxy-2-oxo-1,2,5,6-tetrahydroindolo[1,2-h]naphthyridine-3-carboxylic Acid] | – | 0.13 µM
19 | CC(C)(C)C1Cc2c(cc(OC(F)F)c3c2CCCN3)-c2[nH]c(=O)c(C(=O)O)c(O)c21 (stereo not shown) [Example 9, 6-(tert-Butyl)-12-(difluoromethoxy)-7-hydroxy-9-oxo-1,2,3,4,5,6,9,10-octahydroquinolino[7,8-f]quinoline-8-carboxylic Acid] | – | 0.011 µM
20 | Cn1c2c(cc(C(=O)O)c1=O)C(C(C)(C)C)Cc1c-2nc(Cl)c2ccccc12 (single isomer, unassigned) [Example 44, 12-(tert-Butyl)-6-chloro-4-methyl-3-oxo-3,4,11,12-tetrahydrobenzo[c][1,10]phenanthroline-2-carboxylic Acid] | 0.009 µM | –
21 | COc1cc2c(c3cccnc13)CC(C(C)(C)C)c1cc(C(=O)O)c(=O)[nH]c1-2 (single isomer, unassigned) [Example 35, 6-(tert-Butyl)-12-methoxy-9-oxo-5,6,9,10-tetrahydroquinolino[7,8-f]quinoline-8-carboxylic Acid] | 0.027 µM | –
22 | COc1cc2c(c3cccnc13)CC(C(C)(C)C)c1cc(C(=O)O)c(=O)[nH]c1-2 (single isomer, unassigned) [Example 36, 6-(tert-Butyl)-12-methoxy-9-oxo-5,6,9,10-tetrahydroquinolino[7,8-f]quinoline-8-carboxylic Acid] | 5.2 µM | –
